Reference: patent US9303009B2, “Migrastatins and uses thereof” (Sloan-Kettering Institute for Cancer Research, priority 2011, dated 2016)

Legend:
[1] = system: CAG multiple myeloma cells; test: multiple myeloma transwell migration towards SDF-1α; assay type: cell-based; settings: pretreatment 8 h, transmigration 6 h
Procedure: (§1) Multiple myeloma cell chemotaxis was performed towards a SDF-1α in a modified Boyden chamber consisting of a cell culture insert (4.26 mm diameter, 8-μm pore polyester membrane) seated in each well of a 96-well plate (HTS Transwell-96 System, Corning). Briefly, multiple myeloma cells were grown as subconfluent cultures then starved for 24 hours in serum-free IMDM medium. Single-cell suspensions were prepared by mechanical dissociation, then the cells were counted and a total of 5.10^4 cells suspended in serum-free IMDM medium were seeded into the upper chamber, then positioned in a 96-well plate, containing medium with or without SDF-1α (at 200 ng/mL). […] Migrastatin analogs or DMSO (vehicle) were added to the medium at 0.5% in both chambers. Migration assays were carried out for 6 hours in a humidified incubator at 37° C. with 5% CO2. At the assay endpoint, the inserts were removed and the migrating cells were counted in the well. The migration in response to the test condition was calculated relative to the DMSO vehicle control.

[2] = system: H929 multiple myeloma cells; test: as above; assay type: cell-based; settings: pretreatment 8 h, transmigration 6 h
Procedure: as §1

[3] = system: multiple myeloma (RPMI8226, MM1S, ARP-GL, CAG-GL, OPM2-GL, SKO-007-GL, U266-GL, MM1R cells); test: toxicity by alamarBlue, multiple myeloma cell lines; assay type: cell-based, human; settings: mean of 8 cell lines
Procedure: (§2) The toxicity of compounds 42-45 and their IC50 was determined on a panel of human tumor cell lines of multiple myeloma (RPMI8226, MM1S, MM1R, ARP-GL, CAG-GL, OPM2-GL, SKO-007-GL, U266-GL,) and lung cancer (H299-GL, H522-GL, H647-GL, A549-GL, A549-GL, HI993, H1075-GL, HI373, H17030) origin. Tumor cells were dissociated into a single-cell suspension by Trypsin/Collagenase IV treatment and 500 cells per well were aliquoted into each well of 384 microwell plates in 50 μl of RPMI medium with 10% FCS. Compounds 42-45 were dissolved in DMSO and serially diluted in RPMI medium plus 10% FCS and added (1 mM to 1 nM) to quadruplicate wells containing tumor cells. Dilutions of DMSO without compound were used as a control. After 18 hrs or 2 days, the cultures were pulsed with 6 μl of alamarBlue® (Invitrogen Inc. Grand Island, N.Y.) and incubated overnight. The alamarBlue® provides a cell growth indicator based on detection of metabolic activity. The assay system incorporates an oxidation-reduction indicator that both fluoresces and changes color in response to chemical reduction of growth medium resulting from cell growth. The fluorescence intensity was measured using a Synergy H1 Microplate Reader (Biotek Inc, Winooski, VT) and a dose-response curve established for IC50 determination.

[4] = system: lung cancer (H299-GL, H522-GL, H647-GL, A549-GL, H1993, H1075-GL, H1373-GL H1703 cells); test: toxicity by alamarBlue, lung cancer cell lines; assay type: cell-based; settings: mean of 8 cell lines
Procedure: Dilutions of DMSO without compound were used as a control. After 18 hrs or 2 days, the cultures were pulsed with 6 μl of alamarBlue® (Invitrogen Inc. Grand Island, N.Y.) and incubated overnight. The alamarBlue® provides a cell growth indicator based on detection of metabolic activity. The assay system incorporates an oxidation-reduction indicator that both fluoresces and changes color in response to chemical reduction of growth medium resulting from cell growth. The fluorescence intensity was measured using a Synergy H1 Microplate Reader (Biotek Inc, Winooski, VT) and a dose-response curve established for IC50 determination.

[5] = system: human tumor cell lines of multiple myeloma and lung cancer; test: toxicity by alamarBlue, whole panel; assay type: cell-based
Procedure: as §2

Row | SMILES | % of migration relative to DMSO control ([1]; 5 μM) [%] | % of migration relative to DMSO control ([1]; 250 μM) [%] | % of migration relative to DMSO control ([2]; 5 μM) [%] | % of migration relative to DMSO control ([2]; 250 μM) [%] | Estimated lethal doses (LD50) ([3]; 18 h exposure) [µM] | Estimated lethal doses (LD50) ([3]; 48 h exposure) [µM] | Estimated lethal doses (LD50) ([4]; 18 h exposure) [µM] | Estimated lethal doses (LD50) ([4]; 48 h exposure) [µM] | IC50 [5] [µM]
1 | CNC(=O)CO[C@H]1[C@H](C)/C=C(/C)COCCCCC/C=C/[C@@H]1OC [Compound 44] | 86.22 | 0.05 | 81.48 | 4.06 | 182.5 | 210.6 | 299.7 | 316.7 | 300 to 795
2 | CCNC(=O)O[C@H]1[C@H](C)/C=C(/C)COCCCCC/C=C/[C@@H]1OC [Compound 45] | 54.48 | 0.58 | 62.38 | 5.51 | 275.6 | 217.3 | 446.9 | 446.8 | 300 to 795
3 | CO[C@H]1/C=C/CCCCCOC/C(C)=C\[C@@H](C)[C@@H]1OCCO [Compound 43] | 82.04 | 0.71 | 52.26 | 0.98 | 530.8 | 406.1 | 523.9 | 510.7 | 300 to 795
4 | COC(=O)CO[C@H]1[C@H](C)/C=C(/C)COCCCCC/C=C/[C@@H]1OC [Compound 42] | 93.63 | 0.23 | 91.03 | 7.08 | 515.2 | 476.4 | 741.2 | 602.7 | 300 to 795
